Like-named read-outs stand apart in the source and are kept apart here. Marks after values point to notes of the source that are not given here.
Legend:
Parameters in all cases: key: ++++: excellent (no pausing observed); +++: very good (with slight pausing); ++: Good, full-length products with significant pausing; +: significant pausing, no full-length product but at least one 2′F-araN incorporation detected
[1] = target: T1, Bst DNA polymerase large fragment (Bst) (Geobacillus stearothermophilus, UniProt P52026); assay: Primer extension assay with Bst DNA polymerase large fragment; format: biochemical; settings: for Incorporation of three 2′F-araTTP / 2′F-araCTP (incorporation efficiency): DNA template PF22 (2′F-araTTP) or PF24 (2′F-araCTP); for Enzymatic activity during primer extension reactions: plus dATP, dGTP
T1 construct: consists of the portion of the Bacillus stearothemmophilus DNA polymerase protein responsible for 5′->3′ polymerase activity but lacks the 5′->3′ exonuclease domain; purchased New England Biolabs
T1 sequence (P52026 289-876 limits assumed): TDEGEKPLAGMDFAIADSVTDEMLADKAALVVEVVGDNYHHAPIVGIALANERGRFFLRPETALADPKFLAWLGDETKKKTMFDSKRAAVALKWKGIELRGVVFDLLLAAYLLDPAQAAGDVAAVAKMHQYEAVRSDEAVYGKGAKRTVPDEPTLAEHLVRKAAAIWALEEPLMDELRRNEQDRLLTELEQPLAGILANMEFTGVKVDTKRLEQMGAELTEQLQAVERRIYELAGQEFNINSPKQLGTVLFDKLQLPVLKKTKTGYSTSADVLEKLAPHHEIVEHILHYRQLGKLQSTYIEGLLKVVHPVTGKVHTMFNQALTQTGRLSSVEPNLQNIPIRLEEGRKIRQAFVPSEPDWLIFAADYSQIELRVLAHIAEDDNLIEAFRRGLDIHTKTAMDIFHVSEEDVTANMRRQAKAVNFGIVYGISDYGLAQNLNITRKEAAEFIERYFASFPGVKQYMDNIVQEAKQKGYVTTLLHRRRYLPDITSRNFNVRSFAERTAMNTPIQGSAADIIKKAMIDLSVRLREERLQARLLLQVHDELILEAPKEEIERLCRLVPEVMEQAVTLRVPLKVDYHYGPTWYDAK
Method: (§1) Various different types of DNA polymerases were assessed, including the mesophilic enzyme Klenow fragment of DNA pol I (3′→5′ exo-) (“Kf”); the thermophilic DNA polymerases DV, 9N, Taq, Bst pol I, Th and Ph; and the viral reverse transcriptases HIV RT and MMLV. Kf is a genetically engineered proteolytic product of E. coli pol A gene that encodes DNA polymerase I which retains polymerase activity but has a mutation which abolishes the 3′->5′ and 5′->3′ exonuclease activities. DV is a genetically engineered DNA polymerase purified from a strain of E. coli that carries the DV DNA polymerase gene from Pyrococcus species GB-D. The gene has been engineered to eliminate 3′->5′ proofreading exonuclease activity. 9N is a genetically engineered DNA polymerase that has decreased 3′->5′ proofreading exonuclease activity. 9N is purified from a strain of E. coli that carries a modified 9° N DNA polymerase gene from Thermococcus species (strain 9° N-7). […] Taq polymerase is isolated from E. coli engineered to express Taq polymerase from Thermus aquaticus YT-1. Bst DNA polymerase (Large fragment) is a genetically engineered polymerase that consists of the portion of the Bacillus stearothemmophilus DNA polymerase protein responsible for 5′->3′ polymerase activity but lacks the 5′->3′ exonuclease domain. Th DNA polymerase is a genetically engineered, archaeon-derived DNA polymerase that is a variant of the 9N polymerase described above. The recombinant protein is isolated from E. coli engineered to express 9° NA485L (exo-) DNA polymerase gene, a genetic variant of the native DNA polymerase from Thermococcus species 9° N-7. Ph is a recombinant DNA polymerase that consists of a novel Pyrococcus-like enzyme fused with a double-strand DNA-binding and processivity-enhancing domain.
(§2) Primer extension assays were used to assess the incorporation of 2′F-araNTP on the various DNA templates (Table 1). The DNA primer (PF20) was first radioactively labeled at the 5′-hydroxyl terminus with a radioactive phosphorus probe and the enzyme T4 polynucleotide kinase (T4 PNK) (see Example 1 for General Methods). To assess the incorporation of 2′F-araNTPs, the primer and template were annealed, and the nucleoside 5′-triphosphates added in the presence of enzyme under the conditions specified in Table 2. Time points were obtained by analyzing small aliquots from the reaction mixture through polyacryamide gel electrophoresis (PAGE) and autoradiography.
(§3) Unless otherwise noticed in the Examples described below, the conditions used in the primer extension assays, such as dNTP concentration, reaction temperatures, concentration of Mg^2+, and reaction buffers (provided by the manufacturers, except for the HIV buffer which was prepared in-house) are shown in Table 2.
Primer extension assays were used to assess the incorporation of 2′F-araTTP on the DNA template (PF22). The DNA primer (PF20) was first radioactively labeled at the 5′-hydroxyl terminus with a radioactive phosphorus probe and the enzyme T4 polynucleotide kinase (T4 PNK) according to the manufacturer's specifications (MBI Fermentas Life Sciences, Burlington, ON). Incorporation of the ^32P label was accomplished in reaction mixtures consisting of DNA substrate (200 pmol), 2 μl loxreaction buffer (Buffer A for forward reaction: 500 mM Tris-HCl, pH 7.6 at 25° C., 100 mM MgCl2, 50 mM DTT, 1 mM spermidine and 1 mM EDTA), 1 μl T4 PNK enzyme solution (10 U/1 μl in a solution of 20 mM Tris-HCl, pH 7.5, 25 mM KCl, 0.1 mM EDTA, 2 mM DTT and 50% glycerol), 6 μl [γ-^32P]-ATP solution (6000 Ci/mmol, 10 mCi/ml; Amersham Biosciences, Inc.) and autoclaved sterile water to a final volume of 20 μl. The reaction mixture was incubated for about 45-60 min at 37° C., followed by a second incubation for 10 min at 95° C. to heat denature and deactivate the kinase enzyme.

Taq DNA polymerase (Taq) = target: T2, Taq DNA polymerase (Taq) (Thermus aquaticus, UniProt P19821); assay: Primer extension assay with Taq DNA polymerase; format: biochemical, Thermus aquaticus YT-1; settings: for Incorporation of three 2′F-araTTP / 2′F-araCTP (incorporation efficiency): DNA template PF22 (2′F-araTTP) or PF24 (2′F-araCTP); for Enzymatic activity during primer extension reactions: plus dATP, dGTP
T2 construct: purchased New England Biolabs; host or cells: E. coli
Method: as §1, §2, §3
Primer extension assays were used to assess the incorporation of 2′F-araTTP on the DNA template (PF22). The DNA primer (PF20) was first radioactively labeled at the 5′-hydroxyl terminus with a radioactive phosphorus probe and the enzyme T4 polynucleotide kinase (T4 PNK) according to the manufacturer's specifications (MBI Fermentas Life Sciences, Burlington, ON). […]

[2] = system: Phusion™ High-Fidelity DNA polymerase (Ph); assay: Primer extension assay with Phusion High-Fidelity DNA polymerase; format: biochemical; settings: 55° C.; for Incorporation of three 2′F-araTTP / 2′F-araCTP (incorporation efficiency): DNA template PF22 (2′F-araTTP) or PF24 (2′F-araCTP); for Enzymatic activity during primer extension reactions: plus dATP, dGTP
Method: as §1, §2
as §3, with “2. […]” for “2.”

[3] = target: T3, Klenow fragment DNA polymerase (3′→ 5′ exo-) (Kf) (Escherichia coli, UniProt P00582, D355A/E357A); format: biochemical, E. coli; settings: 37° C.; for Incorporation of three 2′F-araTTP / 2′F-araCTP (incorporation efficiency): DNA template PF22 (2′F-araTTP) or PF24 (2′F-araCTP); for Enzymatic activity during primer extension reactions: plus dATP, dGTP
T3 construct: the mesophilic enzyme Klenow fragment of DNA pol I (3′→5′ exo-) (“Kf”); purchased New England Biolabs
Method: as §1, §2
as §3, with “2. […]” for “2.”

[4] = Example 3, DNA template PF24, 3x 2′F-araCTP, dTTP, 55° C.
[5] = Example 3, DNA template PF24, 3x 2′F-araCTP, dTTP
[6] = Example 2, DNA template PF22, 3x 2′F-araTTP, dCTP

T3 sequence (P00582 324-928 D355A/E357A): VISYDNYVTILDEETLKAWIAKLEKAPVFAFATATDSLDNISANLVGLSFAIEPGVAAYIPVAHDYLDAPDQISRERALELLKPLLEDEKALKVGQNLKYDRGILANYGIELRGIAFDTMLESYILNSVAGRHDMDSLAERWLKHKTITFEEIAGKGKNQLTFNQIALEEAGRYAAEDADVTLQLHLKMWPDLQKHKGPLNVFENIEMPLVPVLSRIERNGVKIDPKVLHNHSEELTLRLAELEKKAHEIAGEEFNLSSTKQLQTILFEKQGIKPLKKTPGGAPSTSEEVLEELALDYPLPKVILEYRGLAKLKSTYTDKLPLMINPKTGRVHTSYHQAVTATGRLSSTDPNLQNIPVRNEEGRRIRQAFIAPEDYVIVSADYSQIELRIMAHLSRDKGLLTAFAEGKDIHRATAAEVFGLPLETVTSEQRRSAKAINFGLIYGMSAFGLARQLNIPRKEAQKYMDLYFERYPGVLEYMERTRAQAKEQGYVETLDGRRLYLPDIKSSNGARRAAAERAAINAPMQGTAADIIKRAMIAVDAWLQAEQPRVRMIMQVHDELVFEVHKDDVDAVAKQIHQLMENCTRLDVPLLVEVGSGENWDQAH
T2 sequence (P19821 whole entry): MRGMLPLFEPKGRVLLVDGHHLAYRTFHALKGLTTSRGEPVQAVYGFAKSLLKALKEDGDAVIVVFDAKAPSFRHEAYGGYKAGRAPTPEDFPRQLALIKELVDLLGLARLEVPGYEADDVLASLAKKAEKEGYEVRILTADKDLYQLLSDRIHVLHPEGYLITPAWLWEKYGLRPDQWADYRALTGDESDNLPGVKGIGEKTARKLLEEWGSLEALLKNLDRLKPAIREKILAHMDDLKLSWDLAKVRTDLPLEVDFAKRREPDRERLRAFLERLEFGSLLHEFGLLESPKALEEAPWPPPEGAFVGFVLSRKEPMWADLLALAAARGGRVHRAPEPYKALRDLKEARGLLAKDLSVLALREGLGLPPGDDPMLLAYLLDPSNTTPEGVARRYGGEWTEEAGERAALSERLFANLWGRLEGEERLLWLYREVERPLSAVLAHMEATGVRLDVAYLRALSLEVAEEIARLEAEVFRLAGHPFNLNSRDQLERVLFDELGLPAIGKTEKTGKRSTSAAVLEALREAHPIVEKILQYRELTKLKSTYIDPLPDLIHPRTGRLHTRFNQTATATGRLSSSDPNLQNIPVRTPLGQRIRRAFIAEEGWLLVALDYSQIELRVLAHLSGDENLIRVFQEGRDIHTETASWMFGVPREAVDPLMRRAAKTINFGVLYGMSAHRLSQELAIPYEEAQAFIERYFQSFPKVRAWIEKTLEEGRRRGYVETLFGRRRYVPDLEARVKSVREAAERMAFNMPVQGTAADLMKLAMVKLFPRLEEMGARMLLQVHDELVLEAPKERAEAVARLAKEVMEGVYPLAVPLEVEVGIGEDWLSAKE

SMILES | Incorporation of three 2′F-araTTP / 2′F-araCTP (incorporation efficiency) ([1]; 37° C.) | Incorporation of three 2′F-araTTP / 2′F-araCTP (incorporation efficiency) ([1]; 55° C.) | Enzymatic activity during primer extension reactions [1, 4] | Incorporation of three 2′F-araTTP / 2′F-araCTP (incorporation efficiency) (Taq DNA polymerase (Taq); 37° C.) | Incorporation of three 2′F-araTTP / 2′F-araCTP (incorporation efficiency) (Taq DNA polymerase (Taq); 55° C.) | Enzymatic activity during primer extension reactions (Taq DNA polymerase (Taq); [4]) | Incorporation of three 2′F-araTTP / 2′F-araCTP (incorporation efficiency) [2] | Enzymatic activity during primer extension reactions [2, 5] | Incorporation of three 2′F-araTTP / 2′F-araCTP (incorporation efficiency) [3] | Enzymatic activity during primer extension reactions [3, 5] | Enzymatic activity during primer extension reactions ([1]; Example 2, DNA template PF22, 3x 2′F-araTTP, dCTP, 55° C.) | Enzymatic activity during primer extension reactions (Taq DNA polymerase (Taq); Example 2, DNA template PF22, 3x 2′F-araTTP, dCTP, at 37° C.) | Enzymatic activity during primer extension reactions [2, 6] | Enzymatic activity during primer extension reactions [3, 6]
Nc1ccn([C@@H]2O[C@H](COP(=O)(O)OP(=O)(O)OP(=O)(O)O)[C@@H](O)[C@@H]2F)c(=O)n1 [2′F-araCTP, 1-(2-deoxy-2-fluoro-β-D-arabinofuranosyl)cytosine 5′-triphosphate] | None | ++++ | ++++ | ++ | ++++ | ++++ | ++++ | ++++ | ++ | ++ |  |  |  | 
Cc1cn([C@@H]2O[C@H](COP(=O)(O)OP(=O)(O)OP(=O)(O)O)[C@@H](O)[C@@H]2F)c(=O)[nH]c1=O [2′F-araTTP, 1-(2-deoxy-2-fluoro-β-D-arabino-furanosyl)thymine 5′-triphosphate] | ++ | +++ |  | ++ |  |  | ++++ |  | ++ |  | +++ | ++^b | ++++ | ++
